Experimental data reported in patent publication US20240066051A1 (priority 2022, published 2024).

Key:
[1] = biological target: SARS-CoV-2 S-protein RBD N501Y (Severe acute respiratory syndrome coronavirus 2, UniProt P0DTC2, N501Y); assay type: binding
[2] = biological target: SARS-CoV-2 S-protein RBD L452R (Severe acute respiratory syndrome coronavirus 2, UniProt P0DTC2, L452R); assay type: binding
[3] = biological target: SARS-CoV-2 S-protein RBD T478K (Severe acute respiratory syndrome coronavirus 2, UniProt P0DTC2, T478K); assay type: binding
[4] = biological target: SARS-CoV-2 S-protein RBD L452R + T478K (Severe acute respiratory syndrome coronavirus 2, UniProt P0DTC2, L452R/T478K); assay type: binding
[5] = biological target: SARS-CoV-2 S-protein RBD E484Q (Severe acute respiratory syndrome coronavirus 2, UniProt P0DTC2, E484Q); assay type: binding
[6] = test system: SARS-CoV-2 pseudotyped viral particles (Delta variant); assay type: cell-based
[7] = test system: SARS-CoV-2 pseudotyped viral particles (Delta variant); assay type: binding
[8] = test system: S-protein RBD mutants (VOC); assay type: binding, SARS-CoV-2
[9] = biological target: S-protein RBD L452R+T478K mutant (Severe acute respiratory syndrome coronavirus 2, UniProt P0DTC2, L452R/T478K)

heparin
affinity to heparin compared with the WT RBD [1]: higher affinity
ka [1]: 1.7 × 10^4 1/MS
kd [1]: 4.2 × 10^−4 1/S
affinity to heparin compared with the WT RBD [2]: lower affinity
ka [2]: 161 1/MS
kd [2]: 1.3 × 10^−3 1/S
ka [3]: 1.2 × 10^4 1/MS
kd [3]: 6.0 × 10^−3 1/S
ka [4]: 2.3 × 10^4 1/MS
kd [4]: 0.014 1/S
ka [5]: 5.2 × 10^4 1/MS
kd [5]: 0.011 1/S

mucopolysaccharide polysulfate [MPS]
IC50 for viral inhibition [6]: 0.28 µg/mL
inhibition of pseudotyped viral particle binding to heparin surface compared with heparin control [7]: stronger inhibition
inhibition of S-protein RBD mutant-heparin interaction compared with heparin [8]: stronger inhibition
inhibition of S-protein RBD mutant-heparin interaction compared with heparin [9]: comparable inhibition to heparin

pentosan polysulfate [PPS]
IC50 for viral inhibition [6]: 0.07 µg/mL
inhibition of pseudotyped viral particle binding to heparin surface compared with heparin control [7]: stronger inhibition
inhibition of S-protein RBD mutant-heparin interaction compared with heparin [8]: stronger inhibition
inhibition of S-protein RBD mutant-heparin interaction compared with heparin [9]: comparable inhibition to heparin
